Test results taken from patent publication US20260137706A1, “METHODS OF TREATING INFLAMMATORY DISEASES” (INTERLINE THERAPEUTICS, INC., priority 2023, published 2026).

Experiments:
[1] = target: T1, GST-RIPK2 fusion protein (human RIPK2, amino acids 1-310) (Homo sapiens, UniProt O43353); assay: RIPK2 binding competition assay (TR-FRET, Tracer 199 displacement); details: 10 nM Tracer 199, 1 nM GST-RIPK2, read-out: RIPK2 IC50
T1 construct: made in house; host or cells: baculovirus infected Sf9 cells
T1 sequence (O43353 1-310): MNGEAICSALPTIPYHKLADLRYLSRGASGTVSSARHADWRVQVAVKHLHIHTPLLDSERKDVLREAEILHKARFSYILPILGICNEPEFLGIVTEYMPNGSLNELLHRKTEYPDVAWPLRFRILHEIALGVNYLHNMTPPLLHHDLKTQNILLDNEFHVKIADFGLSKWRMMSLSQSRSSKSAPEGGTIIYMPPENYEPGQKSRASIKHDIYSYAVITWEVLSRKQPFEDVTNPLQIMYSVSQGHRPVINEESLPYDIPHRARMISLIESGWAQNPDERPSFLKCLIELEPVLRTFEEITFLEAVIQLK
Excerpt: The ability of selected compounds of Formula (I) to inhibit the binding of an Alexa647-labelled ATP-competitive kinase inhibitor to a GST-RIPK2 fusion protein was quantified employing the TR-FRET-based RIPK2 binding competition assay as described in the following paragraphs.
Recombinant fusion protein of N-terminal Glutathione-S-Transferase (GST) and a fragment of human RIPK2 (amino acids 1-310 of accession number 043353), expressed in baculovirus infected Sf9 cells, purified via glutathione affinity chromatography, was used as GST-RIPK2 fusion protein. Tracer 199 from Life Technologies (catalogue no. PR9115B) was used as Alexa647-labelled ATP-competitive kinase inhibitor.
For the assay, 50 nL of a 100-fold concentrated solution of each test compound in DMSO was pipetted into either a black low volume 384-well microtiter plate or a black 1536-well microtiter plate (both Greiner Bio-One, Frickenhausen, Germany), 3 μL solution of Tracer 199 (16.7 nM=>final concentration in 5 μL assay volume is 10 nM) in aqueous assay buffer (25 mM Tris/HCl pH 7.5, 10 mM magnesium chloride (MgCl2), 5 mM β-glycerophosphate, 2.5 mM dithiothreitol (DTT), 0.5 mM ethylene glycol-bis(2-aminoethylether)-N,N,N′,N′-tetraacetic acid (EGTA), 0.5 mM sodium ortho-vanadate, 0.01% (w/v) bovine serum albumin (BSA), 0.005% (w/v) Pluronic F-127 (Sigma)) were added. Then the binding competition was started by the addition of 2 μL of a solution of the GST-RIPK2 fusion protein (2.5 nM=>final conc. in the 5 μL assay volume is 1 nM) and of Anti-GST-Tb (1.25 nM=>final conc. in the 5 μL assay volume is 0.5 nM), a Lumi4®—Tb cryptate-conjugated anti-GST antibody from PerkinElmer (catalogue no 61GSTTAH), in assay buffer.
The resulting mixture was incubated 45 min at 22° C. to allow the formation of a complex between the Tracer 199, the fusion protein and Anti-GST-Tb. Subsequently, the amount of this complex was evaluated by measurement of the resonance energy transfer from the Tb-cryptate to the Tracer 199. Therefore, the fluorescence emissions at 620 nm and 665 nm after excitation at 337 nm were measured in a TR-FRET reader, e.g. a Pherastar FS (BMG Labtechnologies, Offenburg, Germany) or a Viewlux (PerkinElmer). The ratio of the emissions at 665 nm and at 620 nm was taken as the measure of the amount of the complex. The data were normalized (assay reaction without inhibitor=0% activity, all other assay components but no GST-RIPK2 fusion protein=−100% activity).
Table A1 below lists IC50 values of selected compounds of Formula (I) measured in the RIPK2 binding competition assay.

[2] = target: T2, binding of His-XIAP(BIR2)-avi fusion protein to GST-RIPK2 fusion protein (RIPK2/XIAP) (Homo sapiens, UniProt O43353); assay: RIPK2-XIAP binding competition PPI assay (TR-FRET); details: RIPK2/XIAP binding competition PPI assay; for Emax: Amax, read-out: PPI Amax bin; for IC50: read-out: PPI IC50 bin
T2 construct: made in house; host or cells: baculovirus infected Sf9 cells
T2 sequence (O43353 1-310 limits assumed): as the sequence (O43353 1-310) above
In short: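 Compounds (in DMSO, 100-fold stock) incubated 120 min at 23 °C with 1 nM GST-RIPK2 (aa 1-310) and 25 nM His-XIAP(BIR2 aa 152-231)-avi, plus anti-His-XL665 and anti-GST-Tb, in pH 7.5 Tris buffer. Read-out: 665/520 nm emission ratio. Normalized to no-inhibitor (0%) and 50 nM GSK583 (−100%); Amax binned A–D.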

[3] = system: NF-κB pathway (SEAP) in THP1-Dual cells; assay: THP-1 Dual cell SEAP assay (L18-MDP stimulated); assay type: cell-based; details: Homo sapiens, THP1-Dual, read-out: NF-κB THP1 IC50 bin
In short: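 THP1-Dual cells (~25,000/well) were preincubated 30 min with serially diluted compounds, then stimulated with 10 ng/mL L18-MDP (final) for 20-24 h at 37 °C. Supernatant SEAP was read with QUANTI-Blue at OD 620-655 nm after 2 h. IC50 came from non-linear fits of % inhibition versus DMSO/L18-MDP controls after media-blank subtraction.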

SMILES	IC50 [1] [nM]	Emax [2] [%]	IC50 [2] [nM]	IC50 [3] [nM]
COc1cc2ncc(-c3cc(F)c(OC)c(NS(=O)(=O)c4cnc(O)nc4)c3)n2cc1S(=O)(=O)C(C)(C)C [Example 248, N-(5-(6-(tert-butylsulfonyl)-7-methoxyimidazo[1,2-a]pyridin-3-yl)-3-fluoro-2-methoxyphenyl)-2-hydroxypyrimidine-5-sulfonamide]	2.5 to 20	55 to 80	2.5 to 20	> 1000
Cc1c[nH]c2ncc(-c3cnc4cc(OCCO)c(S(=O)(=O)C(C)(C)C)cn34)cc12 [Example 218, 2-((6-(tert-butylsulfonyl)-3-(3-methyl-1H-pyrrolo[2,3-b]pyridin-5-yl)imidazo[1,2-a]pyridin-7-yl)oxy)ethan-1-ol]	2.5 to 20	55 to 80	2.5 to 20	> 1000
COc1cc2ncc(-c3cc(F)nc(NCCCO)c3)n2cc1C(F)(F)F [Example 1, 3-((6-Fluoro-4-(7-methoxy-6-(trifluoromethyl)imidazo[1,2-a]pyridin-3-yl)pyridin-2-yl)amino)propan-1-ol]	2.5 to 20	< 30	> 20	50 to 250
COc1cc(-c2cnc3cc(OCCO)c(S(=O)(=O)C(C)(C)C)cn23)cc(NS(=O)(=O)c2cnn(C)c2)c1OC [Example 245, N-(5-(6-(tert-butylsulfonyl)-7-(2-hydroxyethoxy)imidazo [1,2-a]pyridin-3-yl)-2,3-dimethoxyphenyl)-1-methyl-1H-pyrazole-4-sulfonamide]	1 to 2.5	> 80	< 1	< 50
CC(C)(C)S(=O)(=O)c1cn2c(-c3cc(F)c(N)nc3F)cnc2cc1OCC1COC1 [Example 32, 5-(6-(tert-butylsulfonyl)-7-(oxetan-3-ylmethoxy)imidazo[1,2-a]pyridin-3-yl)-3,6-difluoropyridin-2-amine]	1 to 2.5	> 80	2.5 to 20	50 to 250
COc1cc2ncc(-c3cc(F)c(OC)c(NS(=O)(=O)CC4CC4)c3)n2cc1S(=O)(=O)C(C)(C)C [Example 159, N-(5-(6-(tert-butylsulfonyl)-7-methoxyimidazo[1,2-a]pyridin-3-yl)-3-fluoro-2-methoxyphenyl)-1-cyclopropylmethanesulfonamide]	< 1	> 80	< 1	< 50
COc1cc2ncc(-c3ccc4c(c3)OCC4O)n2cc1S(=O)(=O)C(C)(C)C (centres unmarked) [Example 86, 6-(6-(tert-butylsulfonyl)-7-methoxyimidazo[1,2-a]pyridin-3-yl)-2,3-dihydrobenzofuran-3-ol]	> 20	< 30	> 20	> 1000
COc1cc2ncc(-c3cnn4ncccc34)n2cc1S(=O)(=O)C(C)(C)C [Example 114, 3-(6-(tert-butylsulfonyl)-7-methoxyimidazo[1,2-a]pyridin-3-yl)pyrazolo[1,5-b]pyridazine]	> 20	< 30	> 20	> 1000
COc1cc2ncc(-c3cc(C)c4nn(C)cc4c3)n2cc1S(=O)(=O)C(C)(C)C [Example 97, 5-(6-(tert-butylsulfonyl)-7-methoxyimidazo[1,2-a]pyridin-3-yl)-2,7-dimethyl-2H-indazole]	2.5 to 20	< 30	> 20	> 1000
COc1cc2ncc(-c3cc(N)nc(F)c3)n2cc1C(F)(F)F [Example 2, 6-fluoro-4-(7-methoxy-6-(trifluoromethyl)imidazo[1,2-a]pyridin-3-yl)pyridin-2-amine]	2.5 to 20	< 30	> 20	50 to 250
COc1cc2ncc(-c3cc(F)c(OC)c(NC(=O)c4cnn(C)c4)c3)n2cc1S(=O)(=O)C(C)(C)C [Example 296, N-(5-(6-(tert-butylsulfonyl)-7-methoxyimidazo[1,2-a]pyridin-3-yl)-3-fluoro-2-methoxyphenyl)-1-methyl-1H-pyrazole-4-carboxamide]	> 20	> 80	> 20	> 1000
COc1cc2ncc(-c3cccc(NS(=O)(=O)C4CNC4)c3)n2cc1S(=O)(=O)C(C)(C)C [Example 156, N-(3-(6-(tert-butylsulfonyl)-7-methoxyimidazo[1,2-a]pyridin-3-yl)phenyl)azetidine-3-sulfonamide]	> 20	> 80	> 20	> 1000
CC(C)(C)S(=O)(=O)c1cn2c(-c3cnc4[nH]cnc4c3)cnc2cc1OCCO [Example 229, 2-((6-(tert-butylsulfonyl)-3-(3H-imidazo[4,5-b]pyridin-6-yl)imidazo[1,2-a]pyridin-7-yl)oxy)ethan-1-ol]	> 20	< 30	> 20	> 1000
COc1cc2ncc(-c3cc(F)c(N)nc3F)n2cc1C1(OC)CCOCC1 [Example 76, 3,6-difluoro-5-(7-methoxy-6-(4-methoxytetrahydro-2H-pyran-4-yl)imidazo[1,2-a]pyridin-3-yl)pyridin-2-amine]	> 20	> 80	> 20	> 1000
COc1cc2ncc(-c3cc(F)c(N)nc3F)n2cc1S(=O)(=O)N1CCNCC1 [Example 164, 3,6-difluoro-5-(7-methoxy-6-(piperazin-1-ylsulfonyl)imidazo[1,2-a]pyridin-3-yl)pyridin-2-amine]	> 20	> 80	> 20	> 1000
CC(C)(C)S(=O)(=O)c1cn2c(-c3cc(Cl)c(N)nc3F)cnc2cc1NCCO [Example 256, 2-((3-(6-amino-5-chloro-2-fluoropyridin-3-yl)-6-(tert-butylsulfonyl)imidazo [1,2-a]pyridin-7-yl)amino)ethan-1-ol]	1 to 2.5	> 80	< 1	< 50
COc1cc2ncc(-c3ccc4nn(C)cc4c3)n2cc1S(=O)(=O)C(C)(C)C [Example 111, 5-(6-(tert-butylsulfonyl)-7-methoxyimidazo[1,2-a]pyridin-3-yl)-2-methyl-2H-indazole]	> 20	< 30	> 20	> 1000
CC(C)(C)S(=O)(=O)c1cn2c(-c3cc(F)c(N)nc3F)cnc2cc1OC[C@H]1C[C@@H](O)C1 [Example 196, (1s,3s)-3-(((3-(6-amino-2,5-difluoropyridin-3-yl)-6-(tert-butylsulfonyl)imidazo [1,2-a]pyridin-7-yl)oxy)methyl) cyclobutan-1-ol]	1 to 2.5	> 80	1 to 2.5	50 to 250
C[C@@H](O)CCOc1cc2ncc(-c3cc(F)c(N)nc3F)n2cc1S(=O)(=O)C(C)(C)C [Example 36, (R)-4-((3-(6-amino-2,5-difluoropyridin-3-yl)-6-(tert-butylsulfonyl)imidazo[1,2-a]pyridin-7-yl)oxy)butan-2-ol]	1 to 2.5	> 80	2.5 to 20	50 to 250
CC(C)(C)S(=O)(=O)c1cn2c(-c3cnc4cn[nH]c4c3)cnc2cc1OCCO [Example 210, 2-((6-(tert-butylsulfonyl)-3-(1H-pyrazolo[4,3-b]pyridin-6-yl)imidazo[1,2-a]pyridin-7-yl)oxy)ethan-1-ol]	> 20	< 30	> 20	> 1000
